Measurements reported in US10053462B2, “P2X7 modulators” (Jansssen Pharmaceutica NV, priority 2013, dated 2018).
Like-named read-outs stand apart in the source and are kept apart here.

Target: P2X7 (Homo sapiens (Human), UniProt Q99572)
Test: P2X7 antagonism in human peripheral blood mononuclear cells (PBMCs), IL-1β release
Format: cell-based
Details: LPS 30 ng/ml + Bz-ATP 0.5 mM; for remaining activity at 10 µM: read-out: PBMC 10 μM (% control)
Method: P2X7 Antagonism in Human Peripheral Blood Mononuclear Cells (PBMCs) and Human Whole Blood.
Human blood was collected using a blood donor program. PBMCs were isolated from blood using a Ficoll density gradient technique. Briefly, blood was laid on Ficoll solution and centrifuged at RT for 20 minutes at 2000 rpm. The buffy layer (between red blood cells and plasma) was carefully collected by aspiration, washed with PBS and centrifuged again at 1500 rpm for 15 minutes. The resulting cell pellet was washed and plated on 96 well-plates for experiments. For the Human Whole Blood experiments, 150 μl of human blood was platted on 96 well-plates. Lipopolysaccharide (LPS) (30 ng/ml) was added to each well and incubated for 1 hour. Test compounds were then added and incubated for 30 minutes. The P2X7 agonist, 2′(3′)-O-(4-benzoylbenzoyl) adenosine 5′-triphosphate (Bz-ATP) was then added at a final concentration of 0.5 mM (PBMC) or 1 mM (blood). Cells were incubated for an additional 1.5 hours. At that point, supernatant was collected and stored for IL-1β assay using manufacturer's protocol for enzyme-linked immunosorbent assay (ELISA). Data was expressed as percent control, where control is defined as the difference in IL-1β release in LPS+Bz-ATP samples and LPS only samples. Data was plotted as response (% control) versus concentration to generate IC50 values. […] Data are analyzed and graphed on Graphpad Prism 5. For analysis, each concentration point is averaged from triplicate values and the averaged values are plotted on Graphpad Prism.

[1] = P2X7, Table 2 (additional runs), 10 μM compound

Chain of P2X7 (Q99572 whole entry): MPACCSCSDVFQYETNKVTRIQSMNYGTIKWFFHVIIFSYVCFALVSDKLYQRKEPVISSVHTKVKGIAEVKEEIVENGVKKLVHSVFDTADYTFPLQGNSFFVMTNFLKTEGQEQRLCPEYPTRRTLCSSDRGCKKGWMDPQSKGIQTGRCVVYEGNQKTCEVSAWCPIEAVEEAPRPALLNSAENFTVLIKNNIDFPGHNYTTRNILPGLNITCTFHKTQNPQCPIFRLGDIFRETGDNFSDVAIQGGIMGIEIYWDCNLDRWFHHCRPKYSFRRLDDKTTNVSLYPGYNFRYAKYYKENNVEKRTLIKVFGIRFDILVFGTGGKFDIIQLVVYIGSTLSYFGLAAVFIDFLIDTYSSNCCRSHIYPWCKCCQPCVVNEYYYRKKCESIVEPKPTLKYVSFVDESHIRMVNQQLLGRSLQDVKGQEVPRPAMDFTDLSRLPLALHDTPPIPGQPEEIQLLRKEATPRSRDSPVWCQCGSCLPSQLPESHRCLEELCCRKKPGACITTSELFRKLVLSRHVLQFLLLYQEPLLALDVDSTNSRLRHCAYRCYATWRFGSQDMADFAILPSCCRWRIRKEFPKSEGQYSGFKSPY

O=C(c1cccc(C(F)(F)F)c1Cl)N1[C@@H]2CCC[C@H]1c1nnc(-c3cc(C(F)(F)F)ccn3)n1C2 (stereo in doubt) [Example 196, (6R,10S)-11-{[2-Chloro-3-(trifluoromethyl)phenyl]carbonyl}-3-[4-(trifluoromethyl)pyridin-2-yl]-5,6,7,8,9,10-hexahydro-6,10-epimino[1,2,4]triazolo[4,3-a]azocine]
remaining activity at 10 µM [1]: -0.2%

O=C(c1cccc(C(F)(F)F)c1Cl)N1[C@@H]2CCC[C@H]1c1nnc(-c3ncc(F)cn3)n1C2 (stereo in doubt) [Example 18, (6R*,10S*)-11-{[2-Chloro-3-(trifluoromethyl)phenyl]carbonyl}-3-(5-fluoropyrimidin-2-yl)-5,6,7,8,9,10-hexahydro-6,10-epimino[1,2,4]triazolo[4,3-a]azocine]
remaining activity at 10 µM (P2X7, Table 1, 10 μM compound): -9% | remaining activity at 10 µM [1]: -9%

O=C(c1cccc(C(F)(F)F)c1Cl)N1[C@@H]2CCC[C@H]1c1nnc(-c3cscn3)n1C2 (stereo in doubt) [Example 9, (6R*,10S*)-11-{[2-Chloro-3-(trifluoromethyl)phenyl]carbonyl}-3-(1,3-thiazol-4-yl)-5,6,7,8,9,10-hexahydro-6,10-epimino[1,2,4]triazolo[4,3-a]azocine]
remaining activity at 10 µM (P2X7, Table 1, 10 μM compound): 7.3% | remaining activity at 10 µM [1]: 7.3%

Cc1ccc(-c2nnc3n2C[C@H]2CCC[C@@H]3N2C(=O)c2ccnc(C(F)(F)F)c2Cl)s1 (stereo in doubt) [Example 39, (6R*,10S*)-11-{[3-Chloro-2-(trifluoromethyl)pyridin-4-yl]carbonyl}-3-(5-methylthiophen-2-yl)-5,6,7,8,9,10-hexahydro-6,10-epimino[1,2,4]triazolo[4,3-a]azocine]
remaining activity at 10 µM (P2X7, Table 1, 10 μM compound): 5.8% | remaining activity at 10 µM [1]: 5.8%

O=C(c1ccc(F)c(Cl)c1Cl)N1[C@@H]2CCC[C@H]1c1nnc(-c3ccccn3)n1C2 (stereo in doubt) [Example 203, (6R,10S)-11-[(2,3-Dichloro-4-fluorophenyl)carbonyl]-3-pyridin-2-yl-5,6,7,8,9,10-hexahydro-6,10-epimino[1,2,4]triazolo[4,3-a]azocine]
remaining activity at 10 µM [1]: -5%

Cc1cccc(-c2nnc3n2C[C@H]2CCC[C@@H]3N2C(=O)c2cccc(C(F)(F)F)c2Cl)n1 (stereo in doubt) [Example 24, (6R*,10S*)-11-{[2-Chloro-3-(trifluoromethyl)phenyl]carbonyl}-3-(6-methylpyridin-2-yl)-5,6,7,8,9,10-hexahydro-6,10-epimino[1,2,4]triazolo[4,3-a]azocine]
remaining activity at 10 µM (P2X7, Table 1, 10 μM compound): 32.7% | remaining activity at 10 µM [1]: 32.7%

COc1ccnc(-c2nnc3n2C[C@H]2CCC[C@@H]3N2C(=O)c2cccc(C(F)(F)F)c2Cl)c1 (stereo in doubt) [Example 27, (6R*,10S*)-11-{[2-Chloro-3-(trifluoromethyl)phenyl]carbonyl}-3-(4-methoxypyridin-2-yl)-5,6,7,8,9,10-hexahydro-6,10-epimino[1,2,4]triazolo[4,3-a]azocine]
remaining activity at 10 µM (P2X7, Table 1, 10 μM compound): 4.8% | remaining activity at 10 µM [1]: 4.8%

O=C(c1cccc(C(F)(F)F)c1Cl)N1[C@H]2CC[C@@H]1c1nnc(-c3ccccn3)n1C2 [Example 41, (6S,9R)-10-{[2-Chloro-3-(trifluoromethyl)phenyl]carbonyl}-3-pyridin-2-yl-6,7,8,9-tetrahydro-5H-6,9-epimino[1,2,4]triazolo[4,3-a]azepine]
remaining activity at 10 µM [1]: -20% | PBMC 10 μM (% control) (Table 1, 10 μM compound): −20.0 % control

O=C(c1cccc(C(F)(F)F)c1Cl)N1[C@@H]2CCC[C@H]1c1nnc(-c3ccc(F)cn3)n1C2 (stereo in doubt) [Example 12, (6R*,10S*)-11-{[2-Chloro-3-(trifluoromethyl)phenyl]carbonyl}-3-(5-fluoropyridin-2-yl)-5,6,7,8,9,10-hexahydro-6,10-epimino[1,2,4]triazolo[4,3-a]azocine]
remaining activity at 10 µM (P2X7, Table 1, 10 μM compound): -0.8% | remaining activity at 10 µM [1]: 3.6%

O=C(c1cccc(C(F)(F)F)c1Cl)N1[C@H]2CCC[C@@H]1c1nnc(-c3cccnc3)n1C2 (stereo in doubt) [Example 14, (6S*,10R*)-11-{[2-Chloro-3-(trifluoromethyl)phenyl]carbonyl}-3-pyridin-3-yl-5,6,7,8,9,10-hexahydro-6,10-epimino[1,2,4]triazolo[4,3-a]azocine]
remaining activity at 10 µM (P2X7, Table 1, 10 μM compound): 2.4% | remaining activity at 10 µM [1]: 2.4%

Cc1c(C(=O)N2[C@@H]3CCC[C@H]2c2nnc(-c4ccccn4)n2C3)cccc1C(F)(F)F (stereo in doubt) [Example 201, (6R,10S)-11-{[2-Methyl-3-(trifluoromethyl)phenyl]carbonyl}-3-pyridin-2-yl-5,6,7,8,9,10-hexahydro-6,10-epimino[1,2,4]triazolo[4,3-a]azocine]
remaining activity at 10 µM [1]: -4%
